Assay results taken from PMC9942557, “Bolaamphiphile Analogues of 12-bis-THA Cl2 Are Potent Antimicrobial Therapeutics with Distinct Mechanisms of Action against Bacterial, Mycobacterial, and Fungal Pathogens” (mSphere, 2022).
Like-named read-outs stand apart in the source and are kept apart here.

Legend:
[1] = system: Klebsiella pneumoniae NCTC 13368; assay: Broth microdilution MIC; assay type: cell-based
[2] = system: Escherichia coli NCTC 12923; assay: Broth microdilution MIC; assay type: cell-based
[3] = system: EMR Staphylococcus aureus 15 NCTC 13616; assay: Broth microdilution MIC; assay type: cell-based
[4] = system: VR Enterococcus faecium NCTC 12204; assay: Broth microdilution MIC; assay type: cell-based
C. albicans 3281 = assay: Broth microdilution MIC; assay type: cell-based, Candida albicans; conditions: C. albicans 3281
C. auris temp probe = assay: Broth microdilution MIC; assay type: cell-based, Candida auris; conditions: C. auris temp probe
C. glabrata 8018 = assay: Broth microdilution MIC; assay type: cell-based; conditions: C. glabrata 8018
C. tropicalis 8760 = assay: Broth microdilution MIC; assay type: cell-based; conditions: C. tropicalis 8760
M. smegmatis mc^2 155 = assay: Broth microdilution MIC (Middlebrook 7H9); assay type: cell-based, Mycobacterium smegmatis
HEK293 = assay: In vitro toxicity for cell line; assay type: cell-based, human; conditions: for EC50: Homo sapiens
Excerpt: (§1) TABLE 2 Toxicity of bolaamphiphiles for two cell lines^a | column: Toxicity (EC50 [μg/ml]) of: / 12-bis-THA Cl2; Toxicity (EC50 [μg/ml]) of: / Dequalinium; Toxicity (EC50 [μg/ml]) of: / Quino-bola; Toxicity (EC50 [μg/ml]) of: / Penta-bola; Toxicity (EC50 [μg/ml]) of: / Hepta-bola; Toxicity (EC50 [μg/ml]) of: / Octa-bola; Toxicity (EC50 [μg/ml]) of: / Octa-C10; Toxicity (EC50 [μg/ml]) of: / Octa-C8; Toxicity (EC50 [μg/ml]) of: / Octa-C6

HeLa = assay: In vitro toxicity for cell line; assay type: cell-based, human; conditions: for EC50: Homo sapiens, read-out: Toxicity (EC50)
Excerpt: as §1

P. aeruginosa PAO1 = assay: Checkerboard synergy assay; assay type: cell-based, Pseudomonas aeruginosa; conditions: for MIC: Pseudomonas aeruginosa, read-out: MIC Alone Bolalipid
[5] = system: pBR322 plasmid, wheat germ topoisomerase I; assay: DNA unwinding assay; assay type: biochemical; conditions: for DNA intercalation: relaxed pBR322 plasmid plus topoisomerase I (Fig. 2A); for relaxation of supercoiled plasmid through the action of topoisomerase I: supercoiled pBR322 plasmid, bolalipid present (Fig. 2B)
Method: A DNA unwinding assay kit (Inspiralis Limited, Norwich, UK) consists of wheat germ topoisomerase I assay buffer (50 mM Tris HCl [pH 7.9], 1 mM EDTA, 1 mM dithiothreitol [DTT], 20% [vol/vol] glycerol, 50 mM NaCl) dilution buffer (50 mM Tris HCl [pH 7.9], 1 mM EDTA, 1 mM DTT, 50% [vol/vol] glycerol, 500 mM NaCl), wheat germ topoisomerase I (5 U/μL), supercoiled plasmid pBR322 (1 μg/μL), and relaxed plasmid pBR322 (1 μg/μL). For the experiments, 2× DNA loading buffer containing 40% (wt/vol) sucrose, 100 mM Tris-HCl (pH 8), 1 mM EDTA, and 0.5 mg/mL bromophenol blue was prepared. The enzyme was diluted 1/5 with dilution buffer before being used in the assay. For the assay, 3 mM stock solutions in methanol of the compounds to be tested were prepared. An appropriate number of 1.5-mL Eppendorf tubes were filled with 25 μL of a mix consisting of assay buffer (15 μL of buffer per sample), supercoiled or relaxed pBR322 (0.5 μg/assay), and ultrapure water. In the first two tubes, 1 μL of methanol was added to test the effect of the solvent on both the plasmid and the enzyme. Subsequently, 1 μL of the test compounds was added to the remaining tubes, and the tubes briefly vortexed and incubated at room temperature for 5 min. After that, 2 μL of dilution buffer was added in the first tube, whereas 2 μL of enzyme diluted solution was added to the remaining tubes. The tubes were gently vortexed and incubated for 30 min at 37°C in a water bath. After this time, the reaction was stopped by adding 20 μL of water and 50 μL of water-saturated butanol to each tube. The tubes were vortexed and centrifuged for 1 min at 14,800 rpm. The lower aqueous layer of each tube was removed and transferred to a new tube containing 30 μL of chloroform-isoamyl alcohol (24/1) and 50 μL of loading buffer. The tubes were briefly vortexed and centrifuged for 1 min. Twenty microliters of the upper layer of each tube was loaded onto a 1% (wt/vol) agarose gel, and the gel was run at 80 V for approximately 4 h in Tris-acetate-EDTA buffer (40 mM Tris acetate and 1 mM EDTA). Subsequently, the gel was stained with ethidium bromide (1 μg/mL) for 15 min, briefly destained (5 to 10 min) in water, and visualized with a Multi-Doc Imaging M-26X UVP transilluminator.

[6] = system: Escherichia coli ATCC 25922; assay: Intrahemocoelic G. mellonella infection model; assay type: in vivo, Galleria mellonella; conditions: single 10-mg/kg dose 1 h after infection
Method: The antimicrobial activities of DQC, CM2, and its analogues Quino-bola, Penta-bola, Hepta-bola, and Octa-bola against Escherichia coli ATCC 25922 were tested in Galleria mellonella larvae. All assays were performed on two separate occasions using a group size of 10 larvae; the larvae were kept in separate petri dishes and in a static incubator at 37°C during the period of the experiment. A suspension of E. coli ATCC 25922 was prepared by transferring two colonies of E. coli ATCC 25922 from a fresh agar plate into PBS and adjusting the absorbance to a McFarland 0.5 standard. The number of CFU per milliliter of this suspension was determined and corresponded to 1 × 10^8 CFU/mL. Larvae were injected beneath the tegument with 10 μL of a 1 × 10^7-CFU/mL bacteria suspension, corresponding to 1 × 10^5 CFU per larva. A 50-μL Hamilton syringe with a G27 needle was used for the injection. […] Ten microliters of stock solution was injected into each larva 1 h after infection (10 mg/kg). Levofloxacin (LVX; 50 μg/mL = 2 mg/kg) and PBS were used as positive and negative controls, respectively. A noninfected PBS injection was included to control for the effects of injection. Survival was monitored over a period of 70 to 72 h. Changes in G. mellonella survival were analyzed by the log rank (Mantel-Cox) method and plotted as Kaplan-Meier survival curves using GraphPad Prism version 7.

Fungi (avg) = assay: Selectivity index (toxicity/potency); assay type: cell-based, Candida spp.; conditions: ratio of average toxicity (HEK293 and HeLa) to average potency
Excerpt: as §1, with “3 Selectivity indices” for “2 Toxicity”, “bolaamphiphiles” for “bolaamphiphiles for two cell lines^a”, “Selectivity of^a:” for “Toxicity (EC50 [μg/ml]) of:”

[7] = EMR Staphylococcus aureus 15 NCTC 13616
[8] = VR Enterococcus faecium NCTC 12204
[9] = HEK293, average ± standard error from 3 independent repeats
[10] = average ± standard error from 3 independent repeats
[11] = NCTC13616, EMR Staphylococcus aureus 15 NCTC 13616, read-out: MIC
[12] = NCTC12204, VR Enterococcus faecium NCTC 12204, read-out: MIC
[13] = Candida albicans, read-out: MIC
[14] = Candidozyma auris, read-out: MIC
[15] = Nakaseomyces glabratus, read-out: MIC
[16] = Candida tropicalis, read-out: MIC
[17] = Mycolicibacterium smegmatis, MC^2155, read-out: MIC
[18] = HEK293, average ± standard error from 3 independent repeats, read-out: Toxicity (EC50)

| SMILES | MIC [1] [µg/mL] | MIC [2] [µg/mL] | MIC [3, 7] [µg/mL] | MIC [4, 8] [µg/mL] | MIC (C. albicans 3281) [µg/mL] | MIC (C. auris temp probe) [µg/mL] | MIC (C. glabrata 8018) [µg/mL] | MIC (C. tropicalis 8760) [µg/mL] | MIC (M. smegmatis mc^2 155) [µg/mL] | DNA intercalation [5] | relaxation of supercoiled plasmid through the action of topoisomerase I [5] | protection (survival over 72 h) [6] | MIC ([2]; NCTC12923, read-out: MIC) [µg/mL] | MIC (C. albicans 3281; [13]) [µg/mL] | MIC (C. auris temp probe; [14]) [µg/mL] | MIC (C. glabrata 8018; [15]) [µg/mL] | MIC (C. tropicalis 8760; [16]) [µg/mL] | MIC (M. smegmatis mc^2 155; [17]) [µg/mL] | Selectivity index (Fungi (avg)) | MIC (P. aeruginosa PAO1) [µg/mL] | other results |
| --- | --- | --- | --- | --- | --- | --- | --- | --- | --- | --- | --- | --- | --- | --- | --- | --- | --- | --- | --- | --- | --- |
| Nc1c2c([n+](CCCCCCCCCCCC[n+]3c4c(c(N)c5ccccc53)CCCC4)c3ccccc13)CCCC2 [12-bis-THA Cl2, 12,12′-(Dodecane-1,12-diyl)-bis-(9-amino-1,2,3,4-tetrahydroacridinium) chloride] | 32 | 4 | 0.25 | 0.5 | 0.25 | 2 | 0.25 | 0.25 | 0.28 | intercalators | not observed | survival was somewhat better than that obtained in the absence of treatment | – | – | – | – | – | – | – | – | Toxicity (EC50) (HEK293; [9]): 5.5 ± 2.0 µg/mL; Toxicity (EC50) (HeLa; [10]): 7.1 ± 2.0 µg/mL; MIC alone Bolalipid (P. aeruginosa PAO1): 32 µg/mL |
| Cc1cc(N)c2ccccc2[n+]1CCCCCCCCCC[n+]1c(C)cc(N)c2ccccc21 [Dequalinium, dequalinium chloride, reference compound] | – | – | – | – | – | – | – | – | – | intercalators | not observed | protective | 32 | 0.5 | 4 | 0.5 | 0.5 | 0.68 | 26.8 | > 32 | MIC ([1]; NCTC13368, read-out: MIC): > 32 µg/mL; MIC [3, 11]: 8 µg/mL; MIC [4, 12]: 8 µg/mL; EC50 (HEK293; [18]): 9.9 ± 3.3 µg/mL; EC50 (HeLa; [10]): 34.7 ± 13.9 µg/mL |
| Nc1c2c([n+](CCCCCCCCCCCC[n+]3c4c(c(N)c5ccccc53)CCCCCC4)c3ccccc13)CCCCCC2 [Octa-bola] | – | – | – | – | – | – | – | – | – | intercalation is reduced if not eliminated | not observed | significantly protective | 2 | 0.5 | 1 | 0.5 | 0.25 | 0.55 | 8.30 | 32 | MIC ([1]; NCTC13368, read-out: MIC): 32 µg/mL; MIC [3, 11]: 0.125 µg/mL; MIC [4, 12]: 0.5 µg/mL; EC50 (HEK293; HEK293, read-out: Toxicity (EC50)): 3.8 ± 0.3 µg/mL; EC50 (HeLa): 4.5 ± 0.7 µg/mL |
| Nc1c2c([n+](CCCCCCCCCCCC[n+]3c4c(c(N)c5ccccc53)CCC4)c3ccccc13)CCC2 [Penta-bola] | 32 | 16 | 0.5 | 1 | 0.25 | 2 | 0.25 | 0.25 | 0.10 | intercalators | not observed | neither Quino-bola nor Penta-bola offered significant protection | – | – | – | – | – | – | – | – | Toxicity (EC50) (HEK293; [9]): 7.9 ± 1.2 µg/mL; Toxicity (EC50) (HeLa; [10]): 9.5 ± 1.7 µg/mL; MIC alone Bolalipid (P. aeruginosa PAO1): 32 µg/mL |
| Cc1c(N)c2ccccc2[n+](CCCCCCCCCCCC[n+]2c(C)c(C)c(N)c3ccccc32)c1C [Quino-bola] | 32 | – | – | – | – | – | – | – | – | intercalators | not observed | neither Quino-bola nor Penta-bola offered significant protection | 8 to 16 | 0.25 | 2 | 0.25 | 0.25 | 0.49 | 31.8 | > 32 | MIC ([3]; Staphylococcus aureus, NCTC13616): 1 µg/mL; MIC ([4]; Enterococcus faecium, NCTC12204): 2 µg/mL; EC50 (HEK293; [18]): 13.6 ± 0.6 µg/mL; EC50 (HeLa; [10]): 13.9 ± 9.5 µg/mL |
